Reference: patent US20080287443A1, “Treatment of Subgingival Pocket Infections” (priority 2005, published 2008)
“Also recorded” adds a separate entry of the source.

How the values were obtained:
gingival inflammation = assay: Clinical observation of gingival inflammation after delmopinol rinsing; type: in vivo, human; details: one patient, 0.2% w/v rinse once daily for 14 days
Description: (§1) In this example delmopinol was used as a rinse to treat a patient who had been cared for over a 2-year period. They had been diagnosed with Morbus Crohn (Crohn's Disease) and with oral complications presenting as severe gingival lesions and swollen gingiva. They had been treated with antibiotics (Zithromax) in the past to control their oral infections and routinely used Chlorhexidine 0.12% rinse solution to control the recolonization of pathogens. Chlorhexidine is used routinely for the control of gingival infection/inflammations as an adjunct to other oral hygiene measures. There are, however side-effects with Chlorhexidine, i.e. staining of teeth, loss of taste and a burning sensation. The alcohol content in the Chlorhexidine solution may also cause some problems for patients. The potential burning sensation was in this case problematic and the patient was not compliant with Chlorhexidine rinsing. The treatment routine was changed and they were asked to rinse with 0.2% w/v delmopinol once daily for 14 days (instead of chlorhexidine). They had been given a professional cleaning of their teeth prior to rinsing with Delmopinol but no systemic antibiotics were prescribed. Zithromax was used 6 months prior the current treatment. The following clinical observations were made: 2.

[1] = test system: total bacterial load from sub-gingival samples; assay: Total bacterial load in sub-gingival samples from four sub-gingival pockets; type: in vivo, human; details: pockets 13, 23, 37 and 42; after 2 week rinse vs before; FIG. 1
Description: FIG. 1 illustrates the sub-gingival reduction in bacterial load, in four selected sub-gingival pockets, after a 14 day course of delmopinol rinsing (once daily); and The treatment routine was changed and they were asked to rinse with 0.2% w/v delmopinol once daily for 14 days (instead of chlorhexidine). They had been given a professional cleaning of their teeth prior to rinsing with Delmopinol but no systemic antibiotics were prescribed. Zithromax was used 6 months prior the current treatment.

Tannerella forsythia = assay: Level of key pathogen in sub-gingival samples; type: in vivo; details: sub-gingival samples after 14 day rinse
Description: (§2) The treatment routine was changed and they were asked to rinse with 0.2% w/v delmopinol once daily for 14 days (instead of chlorhexidine). They had been given a professional cleaning of their teeth prior to rinsing with Delmopinol but no systemic antibiotics were prescribed. Zithromax was used 6 months prior the current treatment. In addition, a reduction of some key pathogens were found.

Porphyromonas gingivalis = assay: Level of key pathogen in sub-gingival samples; type: in vivo; details: sub-gingival samples after 14 day rinse
Description: as §2

Treponema denticola = assay: Level of key pathogen in sub-gingival samples; type: in vivo; details: sub-gingival samples after 14 day rinse; FIG. 2
Description: as §2, with “FIG. 2 illustrates the reduction of Treponema denticola and Aggregatibacter actinomycetemcomitans after the 14 day course of delmopinol treatment. The treatment” for “The treatment”

[2] = test system: Aggregatibacter actinomycetemcomitans; assay: Level of key pathogen in sub-gingival samples; type: in vivo; details: sub-gingival samples after 14 day rinse; FIG. 2
Description: as §2, with “FIG. 2 illustrates the reduction of Treponema denticola and Aggregatibacter actinomycetemcomitans after the 14 day course of delmopinol treatment. The treatment” for “The treatment”

[3] = human, in vivo
Description: as §1, with “1.” for “2.”

With CCCC(CCC)CCCC1COCCN1CCO (stereo not shown) [delmopinol, 3-(4-propyl-heptyl)-4-(2-hydroxyethyl)morpholine] the “extent of gingival inflammation (bleeding on probing, gingival swelling, ulcerations)” value (gingival inflammation) was “clinically reduced”, the “total bacterial load from sub-gingival samples” value [1] was “significant reduction” and the “level of Tannerella forsythia” value (Tannerella forsythia) was “not reduced”. The “level of Porphyromonas gingivalis” value (Porphyromonas gingivalis) was “not reduced”, the “level of Treponema denticola” value (Treponema denticola) was “significantly reduced” and the “level of Aggregatibacter actinomycetemcomitans” value [2] was “significantly reduced; also recorded: eliminated”. For the same compound, the “side-effects reported by the patient (staining, burning sensation)” value [3] was “no staining or burning sensation”.
